Test results from paper PMC8071163, “Design and Synthesis of 2,6-Disubstituted-4′-Selenoadenosine-5′-N,N-Dimethyluronamide Derivatives as Human A3 Adenosine Receptor Antagonists” (Pharmaceuticals, 2021).

Columns and labels:
hA2AAR = target: T1, hA2AAR (Homo sapiens, UniProt P29274); experiment: Radioligand competition binding assay at hA2AAR ([3H]ZM241385)
T1 construct: expressed in transfected cells; host or cells: HeLa-A2A cells (membranes)
Method: Adenosine A2A receptor competition binding experiments were carried out in membranes from HeLa-A2A cells. On the day of assay, membranes were defrosted and re-suspended in incubation buffer 50 mM Tris-HCl, 1 mM EDTA, 10 mM MgCl2 and 2 UI/mL adenosine deaminase (pH = 7.4). Each reaction well of a GF/C multiscreen plate (Millipore, Madrid, Spain), prepared in duplicate, contained 10 μg of protein, 3 nM [^3H]ZM241385 and test compound. Nonspecific binding was determined in the presence of 50 μM NECA. The reaction mixture was incubated at 25 °C for 30 min, after which samples were filtered and measured in a microplate beta scintillation counter (Microbeta Trilux, Perkin Elmer, Madrid, Spain).

hA1AR = target: T2, hA1AR (Homo sapiens, UniProt P30542); experiment: Radioligand competition binding assay at hA1AR ([3H]DPCPX)
T2 construct: host or cells: CHO-A1 cells (membranes)
T2 sequence (P30542 1-326): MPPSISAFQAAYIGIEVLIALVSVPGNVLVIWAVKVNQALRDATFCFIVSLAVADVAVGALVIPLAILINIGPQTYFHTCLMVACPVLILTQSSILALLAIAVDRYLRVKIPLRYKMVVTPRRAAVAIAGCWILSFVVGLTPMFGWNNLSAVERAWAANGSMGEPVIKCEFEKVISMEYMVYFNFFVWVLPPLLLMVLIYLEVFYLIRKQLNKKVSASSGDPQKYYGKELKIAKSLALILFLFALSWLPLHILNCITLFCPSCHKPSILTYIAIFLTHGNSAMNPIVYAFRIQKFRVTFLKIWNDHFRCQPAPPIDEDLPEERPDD
Method: Adenosine A1 receptor competition binding experiments were carried out in membranes from CHO-A1 cells (Euroscreen, Gosselies, Belgium). On the day of assay, membranes were defrosted and re-suspended in incubation buffer 20 mM Hepes, 100 mM NaCl, 10 mM MgCl2, 2 UI/mL adenosine deaminase (pH = 7.4). Each reaction well of a GF/C multiscreen plate (Millipore, Madrid, Spain), prepared in duplicate, contained 15 μg of protein, 2 nM [^3H]DPCPX and test compound. Nonspecific binding was determined in the presence of 10 μM (R)-PIA. The reaction mixture was incubated at 25 °C for 60 min, after which samples were filtered and measured in a microplate beta scintillation counter (Microbeta Trilux, Perkin Elmer, Madrid, Spain).

hA3AR [1] = target: T3, hA3AR (Homo sapiens, UniProt P0DMS8); experiment: Radioligand competition binding assay at hA3AR ([3H]NECA); parameters: expressed in transfected cells; host or cells: HeLa-A3 cell line (membranes prepared in laboratory); conditions: 0.5 nM [3H]NECA; mean ± SEM (n = 2); read-out: Affinity, Ki, hA3AR
T3 sequence (P0DMS8 1-318): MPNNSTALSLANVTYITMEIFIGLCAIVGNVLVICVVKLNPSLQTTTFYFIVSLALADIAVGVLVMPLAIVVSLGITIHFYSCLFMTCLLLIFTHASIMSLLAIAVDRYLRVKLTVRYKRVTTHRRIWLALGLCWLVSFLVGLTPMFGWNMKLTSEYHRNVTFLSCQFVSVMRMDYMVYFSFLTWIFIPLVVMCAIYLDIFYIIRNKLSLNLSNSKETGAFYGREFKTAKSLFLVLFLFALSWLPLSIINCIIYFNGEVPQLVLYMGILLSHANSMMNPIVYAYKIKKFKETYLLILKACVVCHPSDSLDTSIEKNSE

hA2BAR = target: T4, hA2BAR (Homo sapiens, UniProt P29275); experiment: Radioligand competition binding assay at hA2BAR ([3H]DPCPX)
T4 construct: host or cells: HEK-293-A2B cells (membranes)
T4 sequence (P29275 1-332): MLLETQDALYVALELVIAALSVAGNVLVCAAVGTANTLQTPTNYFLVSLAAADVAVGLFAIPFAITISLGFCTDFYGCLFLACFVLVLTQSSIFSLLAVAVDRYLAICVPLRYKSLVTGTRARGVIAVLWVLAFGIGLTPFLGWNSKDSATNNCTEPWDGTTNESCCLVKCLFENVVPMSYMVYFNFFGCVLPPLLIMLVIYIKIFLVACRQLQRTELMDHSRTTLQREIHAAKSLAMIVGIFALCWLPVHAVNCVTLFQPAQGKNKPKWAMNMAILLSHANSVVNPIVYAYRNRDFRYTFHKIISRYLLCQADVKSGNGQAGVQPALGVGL
Method: Adenosine A2B receptor competition binding experiments were carried out in membranes from HEK-293-A2B cells (Euroscreen, Gosselies, Belgium) prepared following the provider’s protocol. On the day of assay, membranes were defrosted and re-suspended in incubation buffer 50 mM Tris-HCl, 1 mM EDTA, 10 mM MgCl2, 0.1 mM benzamidine, 10 μg/mL bacitracine and 2 UI/mL adenosine deaminase (pH = 6.5). Each reaction well prepared in duplicate contained 18 μg of protein, 35 nM [^3H]DPCPX and test compound. Nonspecific binding was determined in the presence of 400 μM NECA. The reaction mixture was incubated at 25 °C for 30 min, after which samples were filtered through a multiscreen GF/C microplate and measured in a microplate beta scintillation counter (Microbeta Trilux, Perkin Elmer, Madrid, Spain).

hA3AR [2] = target: T3, hA3AR; experiment: Cyclic AMP accumulation functional assay at hA3AR expressed in CHO cells; assay type: cell-based; parameters: expressed in transfected cells
Method: Human adenosine A3 receptor functional experiments were carried out in CHO-A3#18 cell line. The day before the assay, the cells were seeded on the 96-well culture plate (Falcon 353072, Corning, Glendale, AZ, USA). The cells are washed with wash buffer (Dulbecco’s modified eagle’s medium nutrient mixture F-12 ham (Sigma D8062), 25 mM Hepes; pH = 7.4). Wash buffer is replaced by incubation buffer (Dulbecco’s modified eagle’s medium nutrient mixture F-12 ham (Sigma D8062), 25 mM Hepes, 30 μM Rolipram (Sigma R6520); pH = 7.4). Test compounds and MRS1220 as reference compound (Sigma M228) are added and the cells incubated at 37 °C for 15 min. After, 0.1 μM of 5′-N-ethylcarboxamido-adenosine (NECA) (Sigma E2387) is added and the cells incubated at 37 °C for 10 min. Forskolin (Sigma F3917, Sigma-Aldrich, St. Louis, MO, USA) is added and incubated at 37 °C for 5 min. After incubation, the amount of cAMP is determined using a cAMP Biotrak Enzymeimmunoassay (EIA) System Kit (GE Healthcare RPN225, GE Healthcare, Chicago, IL, USA).

T1 sequence (P29274 whole entry): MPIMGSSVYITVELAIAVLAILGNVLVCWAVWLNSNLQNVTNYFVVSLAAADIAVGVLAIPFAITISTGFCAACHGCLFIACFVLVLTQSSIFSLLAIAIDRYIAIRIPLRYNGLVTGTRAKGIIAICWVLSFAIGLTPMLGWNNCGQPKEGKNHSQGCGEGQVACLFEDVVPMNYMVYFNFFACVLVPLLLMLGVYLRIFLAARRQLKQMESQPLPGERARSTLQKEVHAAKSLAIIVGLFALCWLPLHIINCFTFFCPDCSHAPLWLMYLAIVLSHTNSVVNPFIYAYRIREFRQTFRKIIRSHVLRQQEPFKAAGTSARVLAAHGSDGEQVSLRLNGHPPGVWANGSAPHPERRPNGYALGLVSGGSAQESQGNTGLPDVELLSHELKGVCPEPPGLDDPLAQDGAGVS

Structure (SMILES)	inhibition at 10 µM (hA2AAR) [%]	inhibition at 10 µM (hA1AR) [%]	Ki (hA3AR [1]) [nM]	inhibition at 10 µM (hA2BAR) [%]	Behaviour in cAMP functional assay at hA3AR (hA3AR [2])	Kb (hA3AR [2]; inhibition of NECA-induced cAMP accumulation) [nM]
CN(C)C(=O)[C@H]1[Se][C@@H](n2cnc3c(N)ncnc32)[C@H](O)[C@@H]1O [Compound 9a, (2S,3S,4R,5R)-5-(6-amino-9H-purin-9-yl)-3,4-dihydroxy-N,N-dimethyltetra hydroselenophene-2-carboxamide]	22	16	3710 ± 600	17	–	–
CN(C)C(=O)[C@H]1[Se][C@@H](n2cnc3c(NCc4cccc(I)c4)ncnc32)[C@H](O)[C@@H]1O [Compound 9f, (2S,3S,4R,5R)-3,4-dihydroxy-5-(6-((3-iodobenzyl)amino)-9H-purin-9-yl)-N,N-dimethyltetrahydroselenophene-2-carboxamide]	32	36	22.7 ± 8.9	–	–	–
CN(C)C(=O)[C@H]1[Se][C@@H](n2cnc3c(NCc4cccc(Cl)c4)ncnc32)[C@H](O)[C@@H]1O [Compound 9d, (2S,3S,4R,5R)-5-(6-((3-chlorobenzyl)amino)-9H-purin-9-yl)-3,4-dihydroxy-N,N-dimethyltetrahydroselenophene-2-carboxamide]	4	23	1190 ± 160	15	–	–
CN(C)C(=O)[C@H]1[Se][C@@H](n2cnc3c(NCc4cccc(Br)c4)nc(Cl)nc32)[C@H](O)[C@@H]1O [Compound 9k, (2S,3S,4R,5R)-5-(6-((3-bromobenzyl)amino)-2-chloro-9H-purin-9-yl)-3,4-dihydroxy-N,N-dimethyltetrahydroselenophene-2-carboxamide]	10	58	180 ± 12	27	–	–
CN(C)C(=O)[C@H]1[Se][C@@H](n2cnc3c(NCc4cccc(F)c4)ncnc32)[C@H](O)[C@@H]1O [Compound 9c, (2S,3S,4R,5R)-5-(6-((3-fluorobenzyl)amino)-9H-purin-9-yl)-3,4-dihydroxy-N,N-dimethyltetrahydroselenophene-2-carboxamide]	12	13	2020 ± 170	19	–	–
CN(C)C(=O)[C@H]1[Se][C@@H](n2cnc3c(NCc4cccc(Cl)c4)nc(Cl)nc32)[C@H](O)[C@@H]1O [Compound 9j, (2S,3S,4R,5R)-5-(2-chloro-6-((3-chlorobenzyl)amino)-9H-purin-9-yl)-3,4-dihydroxy-N,N-dimethyltetrahydroselenophene-2-carboxamide]	13	63	195 ± 40	27	–	–
CN(C)C(=O)[C@H]1[Se][C@@H](n2cnc3c(NCc4cccc(F)c4)nc(Cl)nc32)[C@H](O)[C@@H]1O [Compound 9i, (2S,3S,4R,5R)-5-(2-chloro-6-((3-fluorobenzyl)amino)-9H-purin-9-yl)-3,4-dihydroxy-N,N-dimethyltetrahydroselenophene-2-carboxamide]	9	34	238 ± 37	14	–	–
CN(C)C(=O)[C@H]1[Se][C@@H](n2cnc3c(NCc4cccc(I)c4)nc(Cl)nc32)[C@H](O)[C@@H]1O [Compound 9l, (2S,3S,4R,5R)-5-(2-chloro-6-((3-iodobenzyl)amino)-9H-purin-9-yl)-3,4-dihydroxy-N,N-dimethyltetrahydroselenophene-2-carboxamide]	10	68	253 ± 29	23	antagonist activity	114
CN(C)C(=O)[C@H]1[Se][C@@H](n2cnc3c(NCc4cccc(Br)c4)ncnc32)[C@H](O)[C@@H]1O [Compound 9e, (2S,3S,4R,5R)-5-(6-((3-bromobenzyl)amino)-9H-purin-9-yl)-3,4-dihydroxy-N,N-dimethyltetrahydroselenophene-2-carboxamide]	37	43	36.3 ± 12.7	–	–	–
CNc1ncnc2c1ncn2[C@@H]1[Se][C@H](C(=O)N(C)C)[C@@H](O)[C@H]1O [Compound 9b, (2S,3S,4R,5R)-3,4-dihydroxy-N,N-dimethyl-5-(6-(methylamino)-9H-purin-9-yl)tetrahydroselenophene-2-carboxamide]	3	9	609 ± 47	9	–	–
CN(C)C(=O)[C@H]1[Se][C@@H](n2cnc3c(N)nc(Cl)nc32)[C@H](O)[C@@H]1O [Compound 9g, (2S,3S,4R,5R)-5-(2-chloro-6-amino-9H-purin-9-yl)-3,4-dihydroxy-N,N-dimethyltetrahydroselenophene-2-carboxamide]	3	9	3250 ± 370	25	–	–
CNc1nc(Cl)nc2c1ncn2[C@@H]1[Se][C@H](C(=O)N(C)C)[C@@H](O)[C@H]1O [Compound 9h, (2S,3S,4R,5R)-5-(2-chloro-6-(methylamino)-9H-purin-9-yl)-3,4-dihydroxy-N,N-dimethyltetrahydroselenophene-2-carboxamide]	5	58	1060 ± 140	19	–	–
